“And” between values parts separate entries of the source, which are not always exact repeats. Equal entries are not always repeated. “Also recorded” adds a separate entry of the source. Where two headings read alike, the source gives them in different places.
Assays:
[1] = test system: human cytomegalovirus (HCMV), strain AD-169; experiment: Antiviral test (plaque reduction) versus HCMV, strain AD-169, in MRC-5 cells; type: cell-based
[2] = test system: HCMV, strain C8805-37 (DHPG-resistant); experiment: microbe, parasite or virus in culture; type: cell-based, human cytomegalovirus; conditions: for inhibition at 0.01 µg/mL / inhibition at 0.032 µg/mL / inhibition at 0.1 µg/mL / inhibition at 0.32 µg/mL / inhibition at 1 µg/mL / inhibition at 3.2 µg/mL: Human betaherpesvirus 5, MRC5, read-out: Percent Inhibition Compared to Controls
[3] = Human betaherpesvirus 5, AD169, MRC5, read-out: % Reduction
[4] = Table 9 summary, two values = two experiments
[5] = Human betaherpesvirus 5, AD169, MRC5, 0.01 μg/ml, Example 2, read-out: Percent Inhibition of Plaque Numbers (Compared to Virus Controls)
[6] = Human betaherpesvirus 5, AD169, MRC5, 0.032 μg/ml, Example 2, read-out: Percent Inhibition of Plaque Numbers (Compared to Virus Controls)
[7] = Human betaherpesvirus 5, AD169, MRC5, 0.1 μg/ml, Example 2, read-out: Percent Inhibition of Plaque Numbers (Compared to Virus Controls)
[8] = Human betaherpesvirus 5, AD169, MRC5, 0.32 μg/ml, Example 2, read-out: Percent Inhibition of Plaque Numbers (Compared to Virus Controls)
[9] = Human betaherpesvirus 5, AD169, MRC5, 1.0 μg/ml, Example 2, read-out: Percent Inhibition of Plaque Numbers (Compared to Virus Controls)
[10] = 10 μg/ml, Example 2, ethanol stock (protohypericin in DMSO), cells exposed 6 or more days
[11] = Example 2, cells exposed 6 or more days

For `O=C1c2ccccc2C(=O)c2c1ccc(O)c2O` [Alizarin, alizarin], the “Activity against HCMV” value [1] was “show activity; also recorded: active”, the inhibition at 0.01 µg/mL [1, 3] was 0% and the inhibition at 0.032 µg/mL [1, 3] was 0%. It also gave an inhibition at 0.1 µg/mL [1, 3] of 0%, an inhibition at 0.32 µg/mL [1, 3] of 0% and an inhibition at 1 µg/mL [1, 3] of 0%. It also gave an inhibition at 3.2 µg/mL [1, 3] of 0%, an inhibition at 10 µg/mL [1, 3] of 96% and an inhibition at 10 µg/mL ([2]; Human betaherpesvirus 5, MRC5, 96 h, read-out: Percent Inhibition Compared to Controls) of 97%. The inhibition at 0.01 µg/mL [2] was 0%, the inhibition at 0.032 µg/mL [2] was 19% and the inhibition at 0.1 µg/mL [2] was 0%. For the same molecule, the inhibition at 0.32 µg/mL [2] was 0%, the inhibition at 1 µg/mL [2] was 21% and the inhibition at 3.2 µg/mL [2] was 75%. For the same molecule, the CD50 (MRC-5 cells; Example 3, cells exposed 4 days) was >10 µg/mL, the CD50 (MRC-5 cells; Example 5) was > 10 µg/mL and ~13 µg/mL and the CD50 (MRC-5 cells; [4]) was >10 µg/mL. The CD50 (MRC-5 cells; Table 10 summary, DHPG resistant HCMV test) was >10 µg/mL.

With `O=C1c2ccccc2C(=O)c2ccccc21` [Anthraquinone, anthraquinone] the “Number of Plaques” value ([1]; 0.01 μg/ml, Example 5) was 36, the “Number of Plaques” value ([1]; 0.032 μg/ml, Example 5) was 27 and the “Number of Plaques” value ([1]; 0.1 μg/ml, Example 5) was 30. The “Number of Plaques” value ([1]; 0.32 μg/ml, Example 5) was 32, the “Number of Plaques” value ([1]; 1.0 μg/ml, Example 5) was 34 and the “Number of Plaques” value ([1]; 3.2 μg/ml, Example 5) was 36. For the same molecule, the “Number of Plaques” value ([1]; 10.0 μg/ml, Example 5) was 55, the inhibition at 0.01 µg/mL ([1]; Human betaherpesvirus 5, AD169, MRC5, 0.01 μg/ml, Example 5, read-out: % Reduction) was 20% and the inhibition at 0.032 µg/mL ([1]; Human betaherpesvirus 5, AD169, MRC5, 0.032 μg/ml, Example 5, read-out: % Reduction) was 27%. For the same molecule, the inhibition at 0.1 µg/mL ([1]; Human betaherpesvirus 5, AD169, MRC5, 0.1 μg/ml, Example 5, read-out: % Reduction) was 33%, the inhibition at 0.32 µg/mL ([1]; Human betaherpesvirus 5, AD169, MRC5, 0.32 μg/ml, Example 5, read-out: % Reduction) was 29% and the inhibition at 1 µg/mL ([1]; Human betaherpesvirus 5, AD169, MRC5, 1.0 μg/ml, Example 5, read-out: % Reduction) was 24%. For the same molecule, the inhibition at 3.2 µg/mL ([1]; Human betaherpesvirus 5, AD169, MRC5, 3.2 μg/ml, Example 5, read-out: % Reduction) was 20%, the inhibition at 10 µg/mL ([1]; Human betaherpesvirus 5, AD169, MRC5, 10.0 μg/ml, Example 5, read-out: % Reduction) was 0% and the CD50 (MRC-5 cells; human) was >10 µg/mL.

In the case of `O=C1c2cccc(O)c2C(=O)c2cccc(O)c21` [Anthrarufin, anthrarufin], the inhibition at 0.01 µg/mL [1, 3] is reported as 0%, the inhibition at 0.032 µg/mL [1, 3] is reported as 0% and the inhibition at 0.1 µg/mL [1, 3] is reported as 0%. The inhibition at 0.32 µg/mL [1, 3] was 0%, the inhibition at 1 µg/mL [1, 3] was 0% and the inhibition at 3.2 µg/mL [1, 3] was 0%. The inhibition at 10 µg/mL [1, 3] was 0% and the CD50 (MRC-5 cells; human) was >10 µg/mL.

`Cc1cc(O)c2c(c1)C(=O)c1cccc(O)c1C2=O` [Chrysophanol, chrysophanol] gave an inhibition at 0.01 µg/mL [1, 5] of 0%, an inhibition at 0.032 µg/mL [1, 6] of 0% and an inhibition at 0.1 µg/mL [1, 7] of 0%. The inhibition at 0.32 µg/mL [1, 8] was 0%, the inhibition at 1 µg/mL [1, 9] was 0% and the inhibition at 3.2 µg/mL ([1]; Human betaherpesvirus 5, AD169, MRC5, 3.2 μg/ml, Example 2, read-out: Percent Inhibition of Plaque Numbers (Compared to Virus Controls)) was 0%. For the same molecule, the inhibition at 10 µg/mL ([1]; Human betaherpesvirus 5, AD169, MRC5, 10 μg/ml, Example 2, ethanol stock (protohypericin in DMSO), cells exposed 6 or more days, read-out: Percent Inhibition of Plaque Numbers (Compared to Virus Controls)) was 0% and the CD50 (MRC-5 cells; human) was >10 µg/mL.

With `Cc1cc(O)c2c(c1)Cc1cc(O)cc(O)c1C2=O` [Emodin Anthrone, emodin anthrone] the “Percent Inhibition of Plaque Numbers (Compared to Virus Controls)” value (“Percent Inhibition of Plaque Numbers” below) ([1]; 3.2 μg/ml, Example 2) was “toxic”, the “Percent Inhibition of Plaque Numbers” value [1, 10] was “toxic” and the inhibition at 0.01 µg/mL [1, 5] was 0%. The inhibition at 0.032 µg/mL [1, 6] was 0%, the inhibition at 0.1 µg/mL [1, 7] was 0% and the inhibition at 0.32 µg/mL [1, 8] was 0%. For the same molecule, the inhibition at 1 µg/mL [1, 9] was 0%, the “Activity in initial screening against HCMV in vitro” value ([1]; initial screening, in words) was “not active” and the “Activity against DHPG resistant HCMV strain” value [2] was “shows activity; also recorded: active”. For the same molecule, the “Percent Inhibition Compared to Controls” value [2] was “toxic”, the inhibition at 0.01 µg/mL [2] was 0% and the inhibition at 0.032 µg/mL [2] was 0%. For the same molecule, the inhibition at 0.1 µg/mL [2] was 0%, the inhibition at 0.32 µg/mL [2] was 0% and the inhibition at 1 µg/mL [2] was 24%. For the same molecule, the inhibition at 3.2 µg/mL [2] was 100% and the CD50 (MRC-5 cells; human, 4 days) was 2.6 µg/mL.

In the case of `Cc1cc(O)c2c(c1)C(C1c3cc(C)cc(O)c3C(=O)c3c(O)cc(O)cc31)c1cc(O)cc(O)c1C2=O` (stereo not shown) [Emodin Bianthrone (d,1), emodin bianthrone], the “Percent Inhibition of Plaque Numbers” value ([1]; 0.01 μg/ml, Example 2) is reported as 0%, the “Percent Inhibition of Plaque Numbers” value ([1]; 0.032 μg/ml, Example 2) is reported as 0% and the “Percent Inhibition of Plaque Numbers” value ([1]; 0.1 μg/ml, Example 2) is reported as 0%. For the same molecule, the “Percent Inhibition of Plaque Numbers” value ([1]; 0.32 μg/ml, Example 2) was 0%, the “Percent Inhibition of Plaque Numbers” value ([1]; 1.0 μg/ml, Example 2) was 33% and the “Percent Inhibition of Plaque Numbers” value ([1]; 3.2 μg/ml, Example 2) was “toxic”. For the same molecule, the “Percent Inhibition of Plaque Numbers” value [1, 10] was “toxic”, the CD50 (MRC-5 cells; [11]) was 1.2 µg/mL and the CD50 (MRC-5 cells; [4]) was 1.2 µg/mL.

For `Cc1cc(O)c2c(c1)C(C1c3cc(C)cc(O)c3C(=O)c3c(O)cc(O)cc31)c1cc(O)cc(O)c1C2=O` (stereo not drawn) [Emodin Bianthrone (meso), emodin bianthrone], the “Percent Inhibition of Plaque Numbers” value ([1]; 0.01 μg/ml, Example 2) was 0%, the “Percent Inhibition of Plaque Numbers” value ([1]; 0.032 μg/ml, Example 2) was 0% and the “Percent Inhibition of Plaque Numbers” value ([1]; 0.1 μg/ml, Example 2) was 0%. The “Percent Inhibition of Plaque Numbers” value ([1]; 0.32 μg/ml, Example 2) was 0%, the “Percent Inhibition of Plaque Numbers” value ([1]; 1.0 μg/ml, Example 2) was 32% and the “Percent Inhibition of Plaque Numbers” value ([1]; 3.2 μg/ml, Example 2) was “toxic”. The “Percent Inhibition of Plaque Numbers” value [1, 10] was “toxic”, the CD50 (MRC-5 cells; [11]) was 1.8 µg/mL and the CD50 (MRC-5 cells; [4]) was 1.8 µg/mL.

In the case of `O=C(O)c1cc(O)c2c(c1)[C@@H]([C@H]1c3cc(C(=O)O)cc(O)c3C(=O)c3c(O[C@@H]4O[C@H](CO)[C@@H](O)[C@H](O)[C@H]4O)cccc31)c1cccc(O[C@@H]3O[C@H](CO)[C@@H](O)[C@H](O)[C@H]3O)c1C2=O` [Meso Sennoside B, sennoside B], the “Percent Inhibition of Plaque Numbers” value ([1]; 0.01 μg/ml, Example 2) is reported as 0%, the “Percent Inhibition of Plaque Numbers” value ([1]; 0.032 μg/ml, Example 2) is reported as 0% and the “Percent Inhibition of Plaque Numbers” value ([1]; 0.1 μg/ml, Example 2) is reported as 0%. The “Percent Inhibition of Plaque Numbers” value ([1]; 0.32 μg/ml, Example 2) was 0%, the “Percent Inhibition of Plaque Numbers” value ([1]; 1.0 μg/ml, Example 2) was 0% and the “Percent Inhibition of Plaque Numbers” value ([1]; 3.2 μg/ml, Example 2) was 0%. The “Percent Inhibition of Plaque Numbers” value [1, 10] was 0%, the CD50 (MRC-5 cells; [11]) was >10 µg/mL and the CD50 (MRC-5 cells; [4]) was >10 µg/mL.

In the case of `COc1cc(O)c2c(c1)C(=O)c1cc(C)cc(O)c1C2=O` [Physcione, physcione], the “% Reduction” value ([1]; 0.01 μg/ml, Example 6) is reported as 0%, the “Number of Plaques” value ([1]; 0.01 μg/ml, Example 6) is reported as 17 and the “% Reduction” value ([1]; 0.032 μg/ml, Example 6) is reported as 0%. The “Number of Plaques” value ([1]; 0.032 μg/ml, Example 6) was 14, the “% Reduction” value ([1]; 0.1 μg/ml, Example 6) was 0% and the “Number of Plaques” value ([1]; 0.1 μg/ml, Example 6) was 19. The “% Reduction” value ([1]; 0.32 μg/ml, Example 6) was 0%, the “Number of Plaques” value ([1]; 0.32 μg/ml, Example 6) was 18 and the “% Reduction” value ([1]; 1.0 μg/ml, Example 6) was 0%. The “Number of Plaques” value ([1]; 1.0 μg/ml, Example 6) was 18, the “% Reduction” value ([1]; 3.2 μg/ml, Example 6) was 0% and the “Number of Plaques” value ([1]; 3.2 μg/ml, Example 6) was 25. For the same molecule, the “% Reduction” value ([1]; 10.0 μg/ml, Example 6) was 0%, the “Number of Plaques” value ([1]; 10.0 μg/ml, Example 6) was 31 and the CD50 (MRC-5 cells) was >10 µg/mL.

For `O=C1c2ccccc2C(=O)c2c(O)c(O)cc(O)c21` [Purpurin, purpurin], the inhibition at 0.01 µg/mL [1, 3] was 0%, the inhibition at 0.032 µg/mL [1, 3] was 0% and the inhibition at 0.1 µg/mL [1, 3] was 0%. The inhibition at 0.32 µg/mL [1, 3] was 0%, the inhibition at 1 µg/mL [1, 3] was 0% and the inhibition at 3.2 µg/mL [1, 3] was 0%. It also gave a CD50 (MRC-5 cells; human) of 5.6 µg/mL.

With `O=C1c2ccccc2C(=O)c2c(O)ccc(O)c21` [Quinizarin, 1,4-dihydroxyanthraquinone] the “Activity against HCMV” value [1] was “Slight activity; also recorded: show activity; also recorded: activity but at lower levels”, the inhibition at 0.01 µg/mL [1, 3] was 0% and the inhibition at 0.032 µg/mL [1, 3] was 0%. For the same molecule, the inhibition at 0.1 µg/mL [1, 3] was 0%, the inhibition at 0.32 µg/mL [1, 3] was 0% and the CD50 (MRC-5 cells; human) was >10 µg/mL.

protohypericin was tested, and the “Activity against HCMV” value [1] was “show activity; also recorded: good biological activity”, the “Activity in initial screening against HCMV in vitro” value [1] was “active” and the “Percent Inhibition of Plaque Numbers” value [1] was 0%. It also gave a CD50 (MRC-5 cells; [11]) of 5.6 µg/mL and a CD50 (MRC-5 cells; [4]) of 5.6 µg/mL.

Reference: US6686393B1, “Pharmaceutical compositions having antiviral activity against human cytomegalovirus” (Murdock International Corporation, priority 1990, dated 2004)
